Experimental data taken from patent US20250170090A1, “METHOD FOR PREVENTING OR TREATING DISEASE OR DISORDER ASSOCIATED WITH ANTINEOPLASTIC AGENT” (ONQUALITY PHARMACEUTICALS CHINA LTD., priority 2022, published 2025).
Read-outs that look alike come from different tables or passages of the source.

Tests used:
HUVEC cells = experiment: CCK-8 cell viability: alleviation of proliferative toxicity of anti-tumor agents on HUVEC cells (Tables 7-1, 7-2); assay type: cell-based; conditions: for activation at 100 µM: Homo sapiens, 24 h, percentage increase in viable cells vs anti-tumor agent alone, read-out: Response rate % (average)
Method in brief: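 Viability was measured by CCK-8 after 24-48 h of culture. Cells received anti-tumor agent in DMSO with or without co-added NO-NSAID (dissolved in ethanol or sterile water), and results were corrected against the matching NO-NSAID solvent control.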

[1] = test system: chemotherapy-induced hand-foot syndrome; experiment: Prevention of chemotherapy-induced hand-foot syndrome in rat models (Table 5); assay type: in vivo, SD rats
Method in brief: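 SD rats (~200 g, 10 per group) received chemotherapy drugs by gavage at 1 mL/100 g, then NO-NSAID ointment or blank ointment was applied to the paws. Hand-foot syndrome incidence was recorded, and control rate was taken as blank-group incidence minus treated-group incidence.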

[2] = Afatinib (10 μM), NO-NSAID 100 μM
[3] = Cabozantinib (5 μM), NO-NSAID 100 μM
[4] = Dabrafenib (10 μM), NO-NSAID 100 μM
[5] = Everolimus (5 μM), NO-NSAID 100 μM
[6] = Infigratinib (15 μM), NO-NSAID 100 μM
[7] = Lapatinib (5 μM), NO-NSAID 100 μM
[8] = Lenvatinib (10 μM), NO-NSAID 100 μM
[9] = Olmutinib (10 μM), NO-NSAID 100 μM
[10] = Regorafenib (5 μM), NO-NSAID 100 μM
[11] = Selumetinib (5 μM), NO-NSAID 100 μM
[12] = Sorafenib (5 μM), NO-NSAID 100 μM
[13] = Sunitinib (5 μM), NO-NSAID 100 μM

Compound: COc1ccc2cc(C(C)C(=O)OCCCCO[N+](=O)[O-])ccc2c1 (centres unmarked) [Compound A5]
- NO-NSAID response rate % (average) (HUVEC cells; Afatinib (10 μM), NO-NSAID 0.1 μM): 24%
- NO-NSAID response rate % (average) (HUVEC cells; Afatinib (10 μM), NO-NSAID 1 μM): 28%
- NO-NSAID response rate % (average) (HUVEC cells; [2]): 69%
- NO-NSAID response rate % (average) (HUVEC cells; Afatinib (10 μM), NO-NSAID 500 μM): 22%
- NO-NSAID response rate % (average) (HUVEC cells; Cabozantinib (5 μM), NO-NSAID 0.1 μM): 1%
- NO-NSAID response rate % (average) (HUVEC cells; Cabozantinib (5 μM), NO-NSAID 1 μM): 15%
- NO-NSAID response rate % (average) (HUVEC cells; [3]): 60%
- NO-NSAID response rate % (average) (HUVEC cells; Cabozantinib (5 μM), NO-NSAID 500 μM): 24%
- NO-NSAID response rate % (average) (HUVEC cells; Dabrafenib (10 μM), NO-NSAID 0.1 μM): 27%
- NO-NSAID response rate % (average) (HUVEC cells; Dabrafenib (10 μM), NO-NSAID 1 μM): 28%
- NO-NSAID response rate % (average) (HUVEC cells; [4]): 65%
- NO-NSAID response rate % (average) (HUVEC cells; Dabrafenib (10 μM), NO-NSAID 500 μM): 31%
- NO-NSAID response rate % (average) (HUVEC cells; Everolimus (5 μM), NO-NSAID 0.1 μM): 0%
- NO-NSAID response rate % (average) (HUVEC cells; Everolimus (5 μM), NO-NSAID 1 μM): −7%
- NO-NSAID response rate % (average) (HUVEC cells; [5]): 28%
- NO-NSAID response rate % (average) (HUVEC cells; Everolimus (5 μM), NO-NSAID 500 μM): −2%
- activation at 100 µM (HUVEC cells; [2]): 69%
- activation at 100 µM (HUVEC cells; Anlotinib (5 μM), NO-NSAID 100 μM): 57%
- activation at 100 µM (HUVEC cells; Apatinib (10 μM), NO-NSAID 100 μM): 59%
- activation at 100 µM (HUVEC cells; Axitinib (10 μM), NO-NSAID 100 μM): -2%
- activation at 100 µM (HUVEC cells; [3]): 60%
- activation at 100 µM (HUVEC cells; [4]): 65%
- activation at 100 µM (HUVEC cells; Dacomitinib (5 μM), NO-NSAID 100 μM): 75%
- activation at 100 µM (HUVEC cells; Encorafenib (5 μM), NO-NSAID 100 μM): 28%
- activation at 100 µM (HUVEC cells; Erdafitinib (10 μM), NO-NSAID 100 μM): 43%
- activation at 100 µM (HUVEC cells; [5]): 28%
- activation at 100 µM (HUVEC cells; Famitinib (5 μM), NO-NSAID 100 μM): 35%
- activation at 100 µM (HUVEC cells; Fruquintinib (10 μM), NO-NSAID 100 μM): 37%
- activation at 100 µM (HUVEC cells; Gefitinib (10 μM), NO-NSAID 100 μM): 21%
- activation at 100 µM (HUVEC cells; [6]): 48%
- activation at 100 µM (HUVEC cells; [7]): 62%
- activation at 100 µM (HUVEC cells; [8]): 32%
- activation at 100 µM (HUVEC cells; [9]): 48%
- activation at 100 µM (HUVEC cells; [10]): 83%
- activation at 100 µM (HUVEC cells; [11]): 61%
- activation at 100 µM (HUVEC cells; [12]): 1%
- activation at 100 µM (HUVEC cells; [13]): 44%
- activation at 100 µM (HUVEC cells; Vemurafenib (5 μM), NO-NSAID 100 μM): 24%
- NO-NSAID response rate % (average) (HUVEC cells; Infigratinib (15 μM), NO-NSAID 0.1 μM): 28%
- NO-NSAID response rate % (average) (HUVEC cells; Infigratinib (15 μM), NO-NSAID 1 μM): 30%
- NO-NSAID response rate % (average) (HUVEC cells; [6]): 48%
- NO-NSAID response rate % (average) (HUVEC cells; Infigratinib (15 μM), NO-NSAID 500 μM): 34%
- NO-NSAID response rate % (average) (HUVEC cells; Lapatinib (5 μM), NO-NSAID 0.1 μM): 26%
- NO-NSAID response rate % (average) (HUVEC cells; Lapatinib (5 μM), NO-NSAID 1 μM): 35%
- NO-NSAID response rate % (average) (HUVEC cells; [7]): 62%
- NO-NSAID response rate % (average) (HUVEC cells; Lapatinib (5 μM), NO-NSAID 500 μM): 36%
- NO-NSAID response rate % (average) (HUVEC cells; Lenvatinib (10 μM), NO-NSAID 0.1 μM): 11%
- NO-NSAID response rate % (average) (HUVEC cells; Lenvatinib (10 μM), NO-NSAID 1 μM): 44%
- NO-NSAID response rate % (average) (HUVEC cells; [8]): 32%
- NO-NSAID response rate % (average) (HUVEC cells; Lenvatinib (10 μM), NO-NSAID 500 μM): 16%
- NO-NSAID response rate % (average) (HUVEC cells; Olmutinib (10 μM), NO-NSAID 0.1 μM): 19%
- NO-NSAID response rate % (average) (HUVEC cells; Olmutinib (10 μM), NO-NSAID 1 μM): 34%
- NO-NSAID response rate % (average) (HUVEC cells; [9]): 48%
- NO-NSAID response rate % (average) (HUVEC cells; Olmutinib (10 μM), NO-NSAID 500 μM): 39%
- NO-NSAID response rate % (average) (HUVEC cells; Regorafenib (5 μM), NO-NSAID 0.1 μM): 29%
- NO-NSAID response rate % (average) (HUVEC cells; Regorafenib (5 μM), NO-NSAID 1 μM): 46%
- NO-NSAID response rate % (average) (HUVEC cells; [10]): 83%
- NO-NSAID response rate % (average) (HUVEC cells; Regorafenib (5 μM), NO-NSAID 500 μM): 22%
- NO-NSAID response rate % (average) (HUVEC cells; Selumetinib (5 μM), NO-NSAID 0.1 μM): 38%
- NO-NSAID response rate % (average) (HUVEC cells; Selumetinib (5 μM), NO-NSAID 1 μM): 42%
- NO-NSAID response rate % (average) (HUVEC cells; [11]): 61%
- NO-NSAID response rate % (average) (HUVEC cells; Selumetinib (5 μM), NO-NSAID 500 μM): 26%
- NO-NSAID response rate % (average) (HUVEC cells; Sorafenib (5 μM), NO-NSAID 0.1 μM): 20%
- NO-NSAID response rate % (average) (HUVEC cells; Sorafenib (5 μM), NO-NSAID 1 μM): 20%
- NO-NSAID response rate % (average) (HUVEC cells; [12]): 1%
- NO-NSAID response rate % (average) (HUVEC cells; Sorafenib (5 μM), NO-NSAID 500 μM): 3%
- NO-NSAID response rate % (average) (HUVEC cells; Sunitinib (5 μM), NO-NSAID 0.1 μM): 20%
- NO-NSAID response rate % (average) (HUVEC cells; Sunitinib (5 μM), NO-NSAID 1 μM): 40%
- NO-NSAID response rate % (average) (HUVEC cells; [13]): 44%
- NO-NSAID response rate % (average) (HUVEC cells; Sunitinib (5 μM), NO-NSAID 500 μM): 31%
- Control rate ([1]; Acelarin 130 mg/kg twice a week, ointment 1% wt, Days 30): 28.57%
- Control rate ([1]; Acelarin 130 mg/kg twice a week, ointment 2.50% wt, Days 30): 57.14%
- Control rate ([1]; Capecitabine 4000 mg/kg once a day, ointment 1% wt, Days 40): 12.50%
- Control rate ([1]; Capecitabine 4000 mg/kg once a day, ointment 2.50% wt, Days 40): 22.22%
- Control rate ([1]; Capecitabine 4000 mg/kg once a day, ointment 5% wt, Days 40): 50.00%
- Control rate ([1]; Cytarabine 120 mg/kg twice a day, ointment 1% wt, Days 30): 14.29%
- Control rate ([1]; Cytarabine 120 mg/kg twice a day, ointment 2.50% wt, Days 30): 28.57%
- Control rate ([1]; Cytarabine 120 mg/kg twice a day, ointment 5% wt, Days 30): 57.14%
- Control rate ([1]; Doxorubicin 7 mg/kg once every three days, ointment 1% wt, Days 30): 37.50%
- Control rate ([1]; Doxorubicin 7 mg/kg once every three days, ointment 2.50% wt, Days 30): 50.00%
